Results as given in PubChem BioAssay (NCI).
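Step 1: Grow cells in 96-well plates. Step 2: Expose to compound for 48 hours at 5 concentrations. Step 3: Interpolate endpoints linearly; if unreached, use highest concentration. The concentration for 50% growth inhibition is given as GI50. At the TGI there is no net growth.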

How the values were obtained:
Assay in all cases: NCI-60 cell line screen, 48 h
HT29 colon = system: HT29 colon
NCI-H460 lung = system: NCI-H460 lung
SK-MEL-5 melanoma = system: SK-MEL-5 melanoma
HCT-116 colon = system: HCT-116 colon
NCI-H23 lung = system: NCI-H23 lung
HL-60(TB) leukemia = system: HL-60(TB) leukemia
MALME-3M melanoma = system: MALME-3M melanoma
A549 NSCLC = system: A549 NSCLC
LOX IMVI melanoma = system: LOX IMVI melanoma

Structure (SMILES) | TGI (HT29 colon) [µM] | TGI (NCI-H460 lung) [µM] | TGI (SK-MEL-5 melanoma) [µM] | TGI (HCT-116 colon) [µM] | TGI (NCI-H23 lung) [µM] | TGI (HL-60(TB) leukemia) [µM] | TGI (MALME-3M melanoma) [µM] | TGI (A549 NSCLC) [µM] | TGI (LOX IMVI melanoma) [µM] | GI50 (HT29 colon) [µM] | GI50 (NCI-H460 lung) [µM] | GI50 (SK-MEL-5 melanoma) [µM] | GI50 (HCT-116 colon) [µM] | GI50 (NCI-H23 lung) [µM] | GI50 (HL-60(TB) leukemia) [µM] | GI50 (MALME-3M melanoma) [µM] | GI50 (A549 NSCLC) [µM] | GI50 (LOX IMVI melanoma) [µM]
COC(=O)C1C(=O)O[C@@H](c2ccc(OC)c(OC)c2OC)C1C(=O)OC (mixture of isomers) | > 100 | > 100 | > 100 | > 100 | > 100 | > 100 | > 100 | > 100 | > 100 | – | – | – | – | – | – | – | – | –
OCc1ccc(N2CCc3cc(F)ccc3C2)cc1Cl | 14.1 | 1.84 | 20.4 | 11.2 | 30.2 | 29.1 | 31.8 | 14.5 | 24.5 | 0.167 | 0.0583 | 3.95 | < 0.0166 | 12.8 | 1.64 | 16.6 | 0.389 | 9.7
CCCCCCCCCCSC(=O)NC | 77 | > 100 | 45.6 | – | 99.8 | 39.9 | > 100 | > 100 | > 100 | – | – | – | – | – | – | – | – | –
COc1ccc(-c2ccccc2)c2[nH]c3c(c12)CCNC3=O | > 100 | > 100 | > 100 | > 100 | > 100 | > 100 | > 100 | > 100 | > 100 | – | – | – | – | – | – | – | – | –
CC(=O)[CH-]C(=O)c1ccccc1.CC(=O)[CH-]C(=O)c1ccccc1.CC(C)CCC[C@H](C)C1CCC2[C@@H]3CC=C4C[C@@H]([O-])CC[C@]4(C)C3CC[C@@]21C.CC(C)CCC[C@H](C)C1CCC2[C@@H]3CC=C4C[C@@H]([O-])CC[C@]4(C)C3CC[C@@]21C.Cl.[Ti+4] (stereo not given in full) | > 25 | > 25 | > 25 | > 25 | > 25 | > 25 | > 25 | > 25 | > 25 | > 25 | > 25 | > 25 | > 25 | > 25 | 13.7 | 21.4 | > 25 | > 25
CN(NC1OC(CO)C(O)C(O)C1O)c1ccccc1 (stereo not given) | > 100 | > 100 | > 100 | > 100 | > 100 | > 100 | > 100 | > 100 | > 100 | – | – | – | – | – | – | – | – | –
O=C(CO[N+](=O)[O-])OC/C=C/c1ccccc1 | > 100 | > 100 | – | > 100 | > 100 | 60.6 | > 100 | > 100 | > 100 | – | – | – | – | – | – | – | – | –
CN(C)CCn1cnc2ncccc2c1=O | > 100 | > 100 | > 100 | > 100 | > 100 | – | > 100 | > 100 | > 100 | – | – | – | – | – | – | – | – | –
CC1CCC(=O)C(C(O)CC2CC(=O)N(c3ccccc3)C(=O)C2)C1 (stereo not given) | > 100 | > 100 | – | > 100 | > 100 | > 100 | > 100 | > 100 | > 100 | – | – | – | – | – | – | – | – | –
COC1OC(CBr)C(OC(=O)c2ccccc2)C(OS(=O)(=O)c2ccc(C)cc2)C1Br (stereo not given) | > 100 | > 100 | – | > 100 | > 100 | > 100 | > 100 | > 100 | > 100 | – | – | – | – | – | – | – | – | –
CC(=O)Nc1ccc(/C=C2\N=C(c3ccccc3)OC2=O)cc1 | – | > 100 | > 100 | > 100 | > 100 | > 100 | > 100 | > 100 | > 100 | – | – | – | – | – | – | – | – | –
CN(C)C(=O)NC(=S)N(C)C | > 100 | > 100 | > 100 | > 100 | > 100 | > 100 | > 100 | > 100 | – | – | – | – | – | – | – | – | – | –
O=S(=O)(c1ccccc1)N1CN2CN(C1)CN(S(=O)(=O)c1ccccc1)C2 | > 100 | > 100 | > 100 | > 100 | > 100 | > 100 | – | > 100 | > 100 | – | – | – | – | – | – | – | – | –
COc1ccc(S(=O)(=O)N[C@H](C(=O)O)c2ccccc2)cc1 | > 100 | > 100 | > 100 | > 100 | > 100 | – | > 100 | > 100 | > 100 | – | – | – | – | – | – | – | – | –
O=C(N/C(=C\c1ccccc1Cl)c1nc2ccccc2[nH]1)c1ccccc1 | 87.2 | – | 34.2 | – | > 100 | 71.4 | 74.8 | > 100 | – | – | – | – | – | – | – | – | – | –
COC(=O)C1(C)CC2C(C)(CCC3(C)C4=CC=C5C(=CC(=O)C(O)=C5C)C4(C)CCC23C)CC1O (stereo not given) | 2.53 | – | 3.28 | 1.89 | – | 0.771 | 2.24 | 4.94 | – | – | – | – | – | – | – | – | – | –
CCOC(=O)C(NO)C(Sc1ccccc1)c1ccc(OC)cc1 (stereo not given) | > 100 | > 100 | > 100 | > 100 | > 100 | – | > 100 | > 100 | > 100 | – | – | – | – | – | – | – | – | –
